# Test results: ChEMBL document CHEMBL5236551, “Andrographolide and its derivatives: Current achievements and future perspectives” (Eur J Med Chem, 2021)
# pIC50: −log10 of the molar value. Several values for one entry are separate records, joined by “and”; a condition that tells them apart may be missing. Equal values may be shown once.
# How the values were obtained:
# [1] = Antimigratory activity against human Cardiac fibroblast cells assessed as inhibition rate relative to control; assay type: functional
# [2] = system: HCT-116; test: Antiproliferative activity against human HCT-116 cells assessed as cell growth inhibition measured after 48 hrs by MTT assay; assay type: functional, cell-based; conditions: HCT-116, 48 h
# [3] = system: MDA-MB-361; test: Antitumor activity against human MDA-MB-361 cells assessed as tumor growth inhibition; assay type: functional, cell-based
# [4] = system: MDA-MB-231; test: Antitumor activity against human MDA-MB-231 cells assessed as tumor growth inhibition; assay type: functional, cell-based
# [5] = Antiviral activity against DENV2 infected in human HeLa cells incubated for 1 hrs by plaque assay; assay type: functional, cell-based, dengue virus type 2; conditions: Dengue virus
# [6] = system: BT-549; test: Antiproliferative activity against human BT-549 cells; assay type: functional, cell-based
# [7] = Inhibition of mesenchymal transformation in human A549 cells assessed as inhibition rate relative to control; assay type: functional
# [8] = system: Human immunodeficiency virus; test: Antiviral activity against HIV infected in human C8166 cells; assay type: functional, organism-based
# [9] = system: HK-2; test: Antiproliferative activity against human HK-2 cells; assay type: functional, cell-based
# [10] = system: Staphylococcus aureus; test: Antibacterial activity against Staphylococcus aureus MTCC 96 assessed as bacterial growth inhibition by broth micro-dilution assay; assay type: functional
# [11] = system: T47D; test: Antiproliferative activity against human T47D cells; assay type: functional, cell-based
# [12] = Antiviral activity against HIV infected in human MT2 cells; assay type: functional, cell-based; conditions: Human immunodeficiency virus 1, MT2
# [13] = system: Rattus norvegicus; test: Anti-inflammatory activity against egg white-induced paw edema in rat model assessed as detumescence rate measured after 6 hrs relative to control; assay type: functional
# [14] = system: enterovirus D68; test: Antiviral activity against Enterovirus D68 infected in human RD cells assessed as inhibition of viral replication measured after 48 hrs by qRT-PCR analysis; assay type: functional, organism-based; conditions: Enterovirus D
# [15] = system: MCF7; test: Cytotoxicity against human MCF7 cells; assay type: functional, cell-based
# [16] = Antiviral activity against DENV2 infected in human HepG2 cells incubated for 1 hrs by plaque assay; assay type: functional, cell-based, dengue virus type 2; conditions: Dengue virus, HepG2, 1 h
# [17] = system: Chikungunya virus; test: Antiviral activity against Chikungunya virus; assay type: functional, organism-based
# [18] = system: KBM5; test: Antiproliferative activity against human KBM5 cells assessed as reduction in cell viability by MTT assay; assay type: functional, cell-based
# [19] = Antimigratory activity against human LX2 cells assessed as inhibition rate relative to control; assay type: functional, LX-2
# [20] = system: K562; test: Antiproliferative activity against human K562 cells assessed as reduction in cell viability by MTT assay; assay type: functional, cell-based
compound,measurement,setting,value
C=C1CC[C@@H]2[C@](C)(CO)[C@H](O)CC[C@@]2(C)[C@@H]1C/C=C1/C(=O)OC[C@H]1O [ANDROGRAPHOLIDE],inhibition (INH),[1],35%
same,pIC50,[2],4.50
same,pIC50,[3],4.50
same,pIC50,[4],4.69
same,pIC50,[5],4.64
same,pIC50,[6],4.63
same,inhibition (INH),[7],55%
same,pIC50,[8],5.10 and 5.63
same,pIC50,[9],4.51
same,MIC,[10],100 µg/mL
same,pIC50,[11],4.49
same,pIC50,[12],3.85
same,inhibition (INH),[13],74.42%
same,pIC50,[14],5.46
same,pIC50,[15],4.45
same,pIC50,[16],4.68
same,pIC50,[17],6.22
same,pIC50,[18],5.07
same,inhibition (INH),[19],15%
same,pIC50,[20],4.63
